Experimental data reported in publication PMC3306125 (Journal of Medicinal Chemistry, 2012).

Key:
[1] = system: Topo II-DNA cleavage complexes; assay: Cellular Topo II inhibition; assay type: cell-based, human; settings: 90 nM DAU, 130 nM 7, […] 12b; for stabilized Topo II-DNA cleavage complexes, 30 min treatment: DU-145, 30 min; for stabilized Topo II-DNA cleavage complexes, 72 hour treatment: DU-145, 72 h
acetyl tubulin = assay: Western blot of tubulin acetylation in DU-145 cells; settings: DU-145, 4 h; DAU 90, 500 nM; 7 130, 500 nM; 12b 1.31, 10 μM
HDAC 8 = biological target: T1, HDAC 8 (Homo sapiens, UniProt Q9BY41); assay: Recombinant HDAC 8 inhibition; settings: HDAC 8 vs HDAC 1
T1 sequence (Q9BY41 1-377): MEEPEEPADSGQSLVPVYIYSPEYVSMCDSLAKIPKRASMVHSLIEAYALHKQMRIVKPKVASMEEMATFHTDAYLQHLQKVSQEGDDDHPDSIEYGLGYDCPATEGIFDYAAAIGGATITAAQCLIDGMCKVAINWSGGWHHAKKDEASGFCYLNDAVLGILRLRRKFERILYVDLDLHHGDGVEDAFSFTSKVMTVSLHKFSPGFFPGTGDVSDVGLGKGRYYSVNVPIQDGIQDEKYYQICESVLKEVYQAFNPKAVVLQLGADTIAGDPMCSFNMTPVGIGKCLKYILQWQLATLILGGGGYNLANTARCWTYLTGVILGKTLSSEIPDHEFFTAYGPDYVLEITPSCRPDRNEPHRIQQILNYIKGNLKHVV

topoisomerase II = assay: KDNA decatenation assay; assay type: biochemical; settings: 50 μM drug, 10 min at 37°C, gel
HDAC 6 = biological target: T2, HDAC 6 (Homo sapiens, UniProt Q9UBN7); assay: Recombinant HDAC 6 inhibition; assay type: biochemical
T2 sequence (Q9UBN7 1-1215): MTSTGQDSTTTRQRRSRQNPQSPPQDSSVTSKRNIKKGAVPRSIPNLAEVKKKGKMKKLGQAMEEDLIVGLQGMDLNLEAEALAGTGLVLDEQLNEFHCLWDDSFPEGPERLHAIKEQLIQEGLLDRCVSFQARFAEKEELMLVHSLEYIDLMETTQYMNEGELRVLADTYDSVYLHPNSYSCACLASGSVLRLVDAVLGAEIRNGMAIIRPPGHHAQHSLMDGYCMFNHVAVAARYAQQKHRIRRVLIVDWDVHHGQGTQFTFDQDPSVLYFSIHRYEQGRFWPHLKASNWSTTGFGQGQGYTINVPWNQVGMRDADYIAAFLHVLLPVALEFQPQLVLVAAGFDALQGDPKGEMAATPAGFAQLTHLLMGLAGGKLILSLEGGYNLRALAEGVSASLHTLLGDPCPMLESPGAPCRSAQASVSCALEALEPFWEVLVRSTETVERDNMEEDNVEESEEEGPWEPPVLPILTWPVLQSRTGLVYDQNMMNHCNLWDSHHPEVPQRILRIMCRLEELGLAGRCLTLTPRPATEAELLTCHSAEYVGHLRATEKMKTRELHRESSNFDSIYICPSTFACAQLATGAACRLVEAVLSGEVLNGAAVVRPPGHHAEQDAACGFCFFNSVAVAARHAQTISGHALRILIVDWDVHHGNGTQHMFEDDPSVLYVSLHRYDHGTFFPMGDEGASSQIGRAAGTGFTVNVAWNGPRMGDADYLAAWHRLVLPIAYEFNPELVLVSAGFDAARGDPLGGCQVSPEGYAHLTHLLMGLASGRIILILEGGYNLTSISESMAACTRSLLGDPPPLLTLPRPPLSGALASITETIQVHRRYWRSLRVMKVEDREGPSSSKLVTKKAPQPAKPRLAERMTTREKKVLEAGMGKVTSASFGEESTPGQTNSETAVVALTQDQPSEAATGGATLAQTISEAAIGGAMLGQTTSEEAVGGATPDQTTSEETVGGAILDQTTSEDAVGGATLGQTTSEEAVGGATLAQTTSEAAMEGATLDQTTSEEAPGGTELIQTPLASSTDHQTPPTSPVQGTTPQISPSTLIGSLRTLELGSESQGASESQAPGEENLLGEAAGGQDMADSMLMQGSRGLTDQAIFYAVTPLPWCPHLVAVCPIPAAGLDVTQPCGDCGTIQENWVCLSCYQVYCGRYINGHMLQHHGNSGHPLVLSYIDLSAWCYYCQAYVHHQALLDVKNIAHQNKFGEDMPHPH

[2] = system: acetylated histones H4 and H3; assay: Western blot of histone H4 and H3 acetylation in DU-145 cells; assay type: cell-based, human; settings: DU-145, 24 h; SAHA 2.5, 5 μM; DAU 0.1, 0.5 μM; 7 0.5, 1 μM; 12b 2.5, 5 μM
HDAC 1 = HDAC 1 (Homo sapiens, UniProt Q13547); assay: Recombinant HDAC 1 inhibition; settings: 12c vs 12a
Sequence of HDAC 1 (Q13547 whole entry): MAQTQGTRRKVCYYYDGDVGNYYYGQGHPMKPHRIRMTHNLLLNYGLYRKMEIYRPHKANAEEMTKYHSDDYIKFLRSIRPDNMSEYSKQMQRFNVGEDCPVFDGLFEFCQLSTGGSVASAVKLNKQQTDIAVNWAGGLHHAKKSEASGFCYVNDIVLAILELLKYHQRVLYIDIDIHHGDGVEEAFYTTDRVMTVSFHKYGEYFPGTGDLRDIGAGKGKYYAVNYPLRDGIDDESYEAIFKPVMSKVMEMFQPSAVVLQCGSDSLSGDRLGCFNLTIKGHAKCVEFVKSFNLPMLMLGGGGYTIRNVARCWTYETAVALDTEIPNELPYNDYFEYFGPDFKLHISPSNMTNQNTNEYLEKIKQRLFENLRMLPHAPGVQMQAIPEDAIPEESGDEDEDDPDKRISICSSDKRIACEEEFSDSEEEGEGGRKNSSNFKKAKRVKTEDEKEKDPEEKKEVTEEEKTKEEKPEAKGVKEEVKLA

[3] = system: HeLa cell nuclear extract HDACs (HDAC 1/2); assay: In vitro HDAC inhibition, HeLa nuclear extract; assay type: biochemical; settings: relative to 12a

SMILES: COc1cccc2c1C(=O)c1c(O)c3c(c(O)c1C2=O)C[C@@](O)(C(C)=O)C[C@@H]3O[C@H]1C[C@H](NCc2ccc(NC(=O)CCCCCCC(=O)NO)cc2)[C@H](O)[C@H](C)O1 [Compound 7, Daunorubicin-N-benzyl-4-amino-8-oxooctahydroxamic Acid]
- stabilized Topo II-DNA cleavage complexes, 30 min treatment [1]: indistinguishable from that of the control cells
- stabilized Topo II-DNA cleavage complexes, 72 hour treatment [1]: measured increase in Topo II inhibition
- tubulin acetylation (immunoblot) (acetyl tubulin): moderate levels of acetylation
- anti-HDAC 8 activity, fold less than anti-HDAC 1 activity (HDAC 8): about 4 fold
- Topo II inhibition (KDNA decatenation) (topoisomerase II): comparable levels to that of DAU

SMILES: COc1cccc2c1C(=O)c1c(O)c3c(c(O)c1C2=O)C[C@@](O)(C(C)=O)C[C@@H]3O[C@H]1C[C@H](NCc2ccc(-c3cn(CCCCC(=O)NO)nn3)cc2)[C@H](O)[C@H](C)O1 [Compound 12a, Daunorubicin-N-benzyl-4-triazolylpentahydroxamic Acid]
- Topo II inhibition (KDNA decatenation) (topoisomerase II): lower Topo II inhibition activity
- IC50 (HDAC 6): 600 nM

SMILES: COc1cccc2c1C(=O)c1c(O)c3c(c(O)c1C2=O)C[C@@](O)(C(C)=O)C[C@@H]3O[C@H]1C[C@H](NCc2ccc(-c3cn(CCCCCC(=O)NO)nn3)cc2)[C@H](O)[C@H](C)O1 [Compound 12b, Daunorubicin-N-benzyl-4-triazolylhexahydroxamic Acid]
- stabilized Topo II-DNA cleavage complexes, 30 min treatment [1]: significantly higher amount
- stabilized Topo II-DNA cleavage complexes, 72 hour treatment [1]: drastic drop
- tubulin acetylation (immunoblot) (acetyl tubulin): robust acetylation
- histone H4 acetylation (immunoblot) [2]: strong H4 acetylation
- Topo II inhibition (KDNA decatenation) (topoisomerase II): comparable levels to that of DAU

SMILES: COc1cccc2c1C(=O)c1c(O)c3c(c(O)c1C2=O)C[C@@](O)(C(C)=O)C[C@@H]3O[C@H]1C[C@H](NCc2ccc(-c3cn(CCCCCCC(=O)NO)nn3)cc2)[C@H](O)[C@H](C)O1 [Compound 12c, Daunorubicin-N-benzyl-4-triazolylheptahydroxamic Acid]
- fold activity difference between 12a and 12c, HDAC inhibitory activity (HDAC 1): ~ 600 fold
- Topo II inhibition (KDNA decatenation) (topoisomerase II): near total inhibition

SMILES: COc1cccc2c1C(=O)c1c(O)c3c(c(O)c1C2=O)C[C@@](O)(C(C)=O)C[C@@H]3O[C@H]1C[C@H](NCc2ccc(-c3cn(CCCCCCCC(=O)NO)nn3)cc2)[C@H](O)[C@H](C)O1 [Compound 12d, Daunorubicin-N-benzyl-4-triazolyloctahydroxamic Acid]
- fold more potent than 12a, HeLa nuclear extract HDACs [3]: about 20 fold
- Topo II inhibition (KDNA decatenation) (topoisomerase II): lower Topo II inhibition activity

SMILES: COc1cccc2c1C(=O)c1c(O)c3c(c(O)c1C2=O)C[C@@](O)(C(C)=O)C[C@@H]3O[C@H]1C[C@H](N)[C@H](O)[C@H](C)O1 [DAU, daunomycin, reference compound]
- stabilized Topo II-DNA cleavage complexes, 30 min treatment [1]: high levels
- stabilized Topo II-DNA cleavage complexes, 72 hour treatment [1]: significant inhibition of Topo II activity
- tubulin acetylation (immunoblot) (acetyl tubulin): lowest levels of acetylation
- Topo II inhibition (KDNA decatenation) (topoisomerase II): severe impairment of DNA decatenation
